# Tested on: acid secretion
# Assay: Animal study, PPI + cholinergic stimulation: gastric acid output by titration of 30-min gastric collections in fasted, anesthetized, pylorus-ligated rats
# Type: in vivo
# Description: Rats are fasted overnight.
# Rats are anesthetized and small laparotomy and gastrotomy are performed.
# Tygon tubing placed through gastrotomy and into proximal duodenum; pylorus ligated
# Tubing is placed through a small gastrotomy into the most dependent portion of the stomach; esophagogastric junction is ligated carefully to avoid vagal damage and to prevent aspiration
# Gastrotomy and abdomen is closed around tubing
# Stomach is gently rinsed with about 0.9% NaCl at about pH 7.
# Gastric contents are collected by gravity for about 30 min, at which time is rinsed with about 5 ml of NaCl and collected; 30-min contents is titrated with about […] using radiometer automatic titrator to determine basal acid output (“BAO”)
# Rats (3 per group) are randomized to 1 of 3 treatments: • A. Control—intraduodenal (ID) HCO3; • B. Carbachol about 15 μg/kg IP+ID HCO3; and • C. ID omeprazole (about 20 mg/kg) is dissolved in HCO3+carbachol about 15 μg/kg IP
# Gastric contents are collected by gravity for about 30 min, at which time stomachs are rinsed with about 5 ml of NaCl and collected; contents are titrated with 0.01 M NaOH using a Radiometer pH meter; about 30-min collection is repeated ×6.
structure (smiles),measurement,setting,value
C[N+](C)(C)CCOC(N)=O [carbachol],effect on acid secretion,"carbachol about 15 μg/kg IP + ID HCO3, 3 per group",rapidly stimulates acid secretion
same,time at which acid secretion reaches a maximum level following administration,"carbachol about 15 μg/kg IP + ID HCO3, gradually diminishes thereafter",about 90 min

# — patent publication US20080214619A1, “Business method to treat and/or prevent a gastric acid disorder with a proton pump inhibitor (PPI) and a cholinergic agonist to induce rapid onset of PPI action with or without food” (priority 2006, published 2008)
